A word on the Papp A→B: it is how fast a substance crosses the layer from the apical side. A word on the IC50: it is the point on the concentration scale where inhibition reaches its midpoint. High values mean a need for much substance, low ones inhibition by little substance.

The structures appear in SMILES notation.

One series concerns the target T1, MDR1 (P-gp) (Homo sapiens, UniProt P08183).
T1 construct: expressed in transfected cells; host or cells: Madin-Darby Canine Kidney (MDCK) cells
Description: MDCK-MDR1 assay (apparent permeability and efflux ratio). The settings on record: dog; for efflux ratio at 60 min, 1 µM: pH 7.4, MDCK-MDR1, P-gp mediated efflux ratio, read-out: MDR1 ER; for Papp A→B at 60 min, 1 µM: MDCK-MDR1 monolayer, apical to basolateral, pH 7.4, 60 minutes. In kind it is in vitro ADME. As for the experimental part:
Madine-Darby Canine Kidney (MDCK) cells transfected with Multidrug resistance protein 1 (MDR1) are maintained in accordance with the provider's instructions in Dulbecco's Modified Eagle media (DMEM, Fisher Scientific Cat #10569044). DMEM is supplemented with 10% heat inactivated fetal bovine serum (Gibco Cat #16000-044), Penicillin-Streptomycin (100 units/mL) (Gibco Cat #15140122) and an inducer of P-gp, colchicine (200 nM) (Sigma Cat #C9754). The cells are seeded onto the apical side of HTS-Transwell-96 Plates (0.4 μm pore size, Corning Cat #3381) at a density of 6.25×10^3 cells per well with 75 μL and 250 μL of DMEM media in apical and basolateral wells, respectively, and are incubated at 37° C./5% CO2. Fresh DMEM media is exchanged in the apical and basolateral compartments after 72 hours and cells are allowed to grow into a monolayer for 144 hours before beginning the experimental incubation. Incubations are performed in Hanks' Balanced Salt Solution (HBSS, Fisher Scientific Cat #14025134) at pH 7.4 with 1% Bovine Serum Albumin (Sigma, Cat #A9418) and 10 mM HEPES (Fisher Scientific, Cat #15630080). DMEM media is removed and cells are rinsed with warm (37° C.) HBSS. HBSS with test compound at 1p M substrate concentration (0.1% v/v DMSO) is added to either the apical or basolateral compartment (75 μL or 250 μL, respectively) and blank HBSS buffer is added to the compartment which lacks test compound in singlicate. The cells are incubated for 60 minutes at 37° C./5% CO2. At the end of the incubation period, 50 μL of sample is removed from each receiver compartment and diluted into 150 μL of acetonitrile (Fisher Scientific, Cat #A996SK4)+0.1% formic acid (Sigma, Cat #F0507). The samples are centrifuged at 2000 rcf for 10 minutes at 4° C., after which 100 μL of supernatant is transferred to a new microplate and diluted with 100 μL of HPLC grade water (Fisher Scientific, Cat #W64). Samples are analyzed using a triple quadrupole mass spectrometer API-5500QTrap (ABSciex, Serial No. AU23291006) along with associated autosampler and high performance liquid chromatography pump instrumentation optimized for the detection of test articles through a Kinetix 2.1×50 mm C18 100 Å column (Phenomenex, Cat #00B-4605-AN).
Apparent permeability (Papp) values and efflux ratio are calculated using the following equations: […]

The test system of a further series is NF-κB pathway. The series is described as follows: TNF-α assay in IFN-γ-differentiated, LPS-stimulated THP-1 cells (ELISA). The conditions noted are these: Homo sapiens, 50 ng/mL LPS, 3 hours. It is filed as cell-based. The method in brief: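 THP-1 cells differentiated with 25 ng/mL IFN-γ for 24 h, then preincubated 30 min at 37 °C with compound (1:3.16 serial dilutions) in serum-free medium. Stimulated with 50 ng/mL LPS for 3 h; supernatant assayed by human TNF-α ELISA. IC50 from four-parameter logistic fit of % inhibition.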
Background: In an ELISA, binding on a coated surface is turned into a signal by an enzyme label.

For another series, the target named is NLRP3 inflammasome (Homo sapiens, UniProt Q96P20). Description: IL-1β assay in IFN-γ-differentiated, LPS-primed, ATP-activated THP-1 cells (ELISA). In kind it is cell-based. The conditions noted are these: 50 ng/mL LPS priming, 2.5 mM ATP activation, 2 hours. The method in brief: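 Supernatant IL-1β is quantified by ELISA after 2 h of 2.5 mM ATP stimulation at 37 °C, with IC50 taken from a four-parameter fit of % inhibition. Before this, THP-1 macrophages (25 ng/mL IFN-γ, 24 h) were LPS-primed (50 ng/mL, 24 h, no FBS) and exposed to serially diluted compound for 30 min.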
NLRP3 inflammasome, sequence (Q96P20 whole entry): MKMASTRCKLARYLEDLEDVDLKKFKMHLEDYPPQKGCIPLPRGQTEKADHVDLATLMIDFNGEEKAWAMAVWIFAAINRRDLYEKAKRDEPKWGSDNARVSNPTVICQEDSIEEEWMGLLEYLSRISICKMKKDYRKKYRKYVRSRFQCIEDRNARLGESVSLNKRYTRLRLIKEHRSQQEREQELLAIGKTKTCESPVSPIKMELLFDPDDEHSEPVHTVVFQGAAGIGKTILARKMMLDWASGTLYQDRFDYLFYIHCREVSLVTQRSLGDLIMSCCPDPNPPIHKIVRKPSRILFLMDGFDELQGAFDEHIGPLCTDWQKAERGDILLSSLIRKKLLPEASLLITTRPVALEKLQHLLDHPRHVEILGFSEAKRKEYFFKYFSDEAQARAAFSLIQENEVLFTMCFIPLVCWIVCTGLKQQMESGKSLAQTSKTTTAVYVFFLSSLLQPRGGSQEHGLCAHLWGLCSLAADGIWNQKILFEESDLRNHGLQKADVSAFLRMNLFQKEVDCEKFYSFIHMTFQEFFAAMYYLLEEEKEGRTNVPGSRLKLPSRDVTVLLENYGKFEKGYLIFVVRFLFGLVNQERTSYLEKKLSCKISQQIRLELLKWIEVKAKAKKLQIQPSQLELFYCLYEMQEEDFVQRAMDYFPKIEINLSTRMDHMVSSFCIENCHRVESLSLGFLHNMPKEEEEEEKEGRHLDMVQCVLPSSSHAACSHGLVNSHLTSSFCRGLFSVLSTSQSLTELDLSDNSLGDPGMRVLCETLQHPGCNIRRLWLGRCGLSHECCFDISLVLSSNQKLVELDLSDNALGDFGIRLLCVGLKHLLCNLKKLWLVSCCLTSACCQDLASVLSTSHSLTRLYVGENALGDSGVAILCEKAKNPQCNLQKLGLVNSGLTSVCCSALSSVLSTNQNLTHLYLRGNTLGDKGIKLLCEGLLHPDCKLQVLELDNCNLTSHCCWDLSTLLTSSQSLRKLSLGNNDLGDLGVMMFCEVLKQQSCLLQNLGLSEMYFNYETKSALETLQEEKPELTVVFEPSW

T1 sequence (P08183 whole entry, species assumed): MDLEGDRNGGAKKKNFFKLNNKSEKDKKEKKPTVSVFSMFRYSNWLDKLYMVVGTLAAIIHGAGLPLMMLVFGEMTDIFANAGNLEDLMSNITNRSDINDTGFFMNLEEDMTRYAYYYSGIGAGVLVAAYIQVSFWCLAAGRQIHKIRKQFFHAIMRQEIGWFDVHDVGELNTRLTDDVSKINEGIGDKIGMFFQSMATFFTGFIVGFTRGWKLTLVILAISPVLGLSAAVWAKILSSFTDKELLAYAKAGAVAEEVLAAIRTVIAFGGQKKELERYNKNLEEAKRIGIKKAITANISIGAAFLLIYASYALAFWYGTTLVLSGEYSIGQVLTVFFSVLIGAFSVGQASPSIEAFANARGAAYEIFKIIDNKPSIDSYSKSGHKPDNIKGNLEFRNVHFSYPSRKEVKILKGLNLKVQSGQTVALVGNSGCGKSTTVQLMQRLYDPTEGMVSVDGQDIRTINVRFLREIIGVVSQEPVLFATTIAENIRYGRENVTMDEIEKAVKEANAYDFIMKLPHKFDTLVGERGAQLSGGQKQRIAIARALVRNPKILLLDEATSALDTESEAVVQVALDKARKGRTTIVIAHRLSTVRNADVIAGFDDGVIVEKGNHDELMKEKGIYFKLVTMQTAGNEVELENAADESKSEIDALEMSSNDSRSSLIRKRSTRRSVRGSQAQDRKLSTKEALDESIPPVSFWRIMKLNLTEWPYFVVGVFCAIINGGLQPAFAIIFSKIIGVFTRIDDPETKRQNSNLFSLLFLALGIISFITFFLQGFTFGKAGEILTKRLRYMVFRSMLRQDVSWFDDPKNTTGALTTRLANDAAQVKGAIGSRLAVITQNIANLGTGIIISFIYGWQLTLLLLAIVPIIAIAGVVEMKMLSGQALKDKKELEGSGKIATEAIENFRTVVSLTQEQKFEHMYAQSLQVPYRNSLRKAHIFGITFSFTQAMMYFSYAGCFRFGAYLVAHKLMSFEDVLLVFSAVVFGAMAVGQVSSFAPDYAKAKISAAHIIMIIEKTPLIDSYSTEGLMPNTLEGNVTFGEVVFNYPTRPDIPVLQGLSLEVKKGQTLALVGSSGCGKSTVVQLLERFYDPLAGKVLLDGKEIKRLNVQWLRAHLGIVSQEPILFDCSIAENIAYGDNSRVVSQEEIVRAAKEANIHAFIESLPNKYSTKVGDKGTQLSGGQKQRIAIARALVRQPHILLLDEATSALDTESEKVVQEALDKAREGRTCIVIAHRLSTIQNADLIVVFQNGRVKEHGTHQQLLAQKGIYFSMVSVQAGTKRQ

For `CN1C[C@H](F)C[C@@H](Nc2nnc(-c3ccc(C(F)(F)F)cc3O)c3c2COCC3)C1` [Example 234, 2-(4-(((3R,5R)-5-fluoro-1-methylpiperidin-3-yl)amino)-7,8-dihydro-5H-pyrano[3,4-d]pyridazin-1-yl)-5-(trifluoromethyl)phenol], the efflux ratio at 60 min, 1 µM at MDR1 (P-gp) worked out at 12. Moreover, the Papp A→B at 60 min, 1 µM on MDR1 (P-gp) worked out at 1.5 ×10⁻⁶ cm/s. Further, the 50% inhibitory concentration (IC50) is more than 30 µM with NF-κB pathway and 6 nM at NLRP3 inflammasome.

As for `Cc1ccc(-c2nnc(N[C@@H]3CCCC[C@H]3O)c3c2CCOC3)c(O)c1` [Example 229, 2-(4-(((1R,2R)-2-hydroxycyclohexyl)amino)-7,8-dihydro-5H-pyrano[3,4-d]pyridazin-1-yl)-5-methylphenol], on MDR1 (P-gp), the efflux ratio at 60 min, 1 µM was determined as 6 and the Papp A→B at 60 min, 1 µM is 1 ×10⁻⁶ cm/s. Besides, in the series with NF-κB pathway, the IC50 is more than 10 µM. Half-maximal inhibition on NLRP3 inflammasome (IC50) required 36 nM.

With `COCCN1CCC[C@@H](Nc2nnc(-c3ccc(C)cc3O)c3c2COCC3)C1` [Example 233, (R)-2-(4-((1-(2-methoxyethyl)piperidin-3-yl)amino)-7,8-dihydro-5H-pyrano[3,4-d]pyridazin-1-yl)-5-methylphenol], at MDR1 (P-gp), the efflux ratio at 60 min, 1 µM is 25 and the apical-to-basolateral permeability (Papp A→B) at 60 min, 1 µM was determined as 2 ×10⁻⁶ cm/s. Besides, the concentration for half-maximal inhibition (IC50) in the series on NF-κB pathway is more than 30 µM. Also, at NLRP3 inflammasome, the IC50 is 155 nM.

`CN1C[C@H](F)C[C@@H](Nc2nnc(-c3ccc(C(F)F)cc3O)c3c2COCC3)C1` [Example 239, 5-(difluoromethyl)-2-(4-(((3R,5R)-5-fluoro-1-methylpiperidin-3-yl)amino)-7,8-dihydro-5H-pyrano[3,4-d]pyridazin-1-yl)phenol]: at MDR1 (P-gp), the efflux ratio at 60 min, 1 µM amounted to 39 and the Papp A→B at 60 min, 1 µM is 1.2 ×10⁻⁶ cm/s. The concentration for half-maximal inhibition (IC50) in the series on NF-κB pathway was more than 30 µM. At NLRP3 inflammasome, this molecule came in with a half-inhibitory concentration (IC50) of 11 nM.

On to `Cc1ccc(-c2nnc(N[C@@H]3C[C@@H](F)CN(C)C3)c3c2CCOC3)c(O)c1` [Example 220, 2-(4-(((3R,5R)-5-fluoro-1-methylpiperidin-3-yl)amino)-7,8-dihydro-5H-pyrano[3,4-d]pyridazin-1-yl)-5-methylphenol], for which, on MDR1 (P-gp), the efflux ratio at 60 min, 1 µM stood at 9 and the Papp A→B at 60 min, 1 µM amounted to 1.5 ×10⁻⁶ cm/s. This molecule also had a concentration for half-maximal inhibition (IC50) with NF-κB pathway of more than 30 µM. This molecule also yielded an IC50 against NLRP3 inflammasome of 8 nM.

In the case of `CN1C[C@H](F)C[C@@H](Nc2nnc(-c3ccccc3O)c3c2COCC3)C1` [Example 213, 2-(4-(((3R,5R)-5-fluoro-1-methylpiperidin-3-yl)amino)-7,8-dihydro-5H-pyrano[3,4-d]pyridazin-1-yl)phenol], on MDR1 (P-gp), the efflux ratio at 60 min, 1 µM is 14 and the Papp A→B at 60 min, 1 µM amounted to 3.1 ×10⁻⁶ cm/s. Also, in the series on NF-κB pathway, the half-maximal inhibitory concentration (IC50) is more than 30 µM. Moreover, at NLRP3 inflammasome, half-maximal inhibition (IC50) required 28 nM.

`CN1C[C@H](F)C[C@@H](Nc2nnc(-c3ccc(Cl)cc3O)c3c2COCC3)C1` [Example 212, 5-chloro-2-(4-(((3R,5R)-5-fluoro-1-methylpiperidin-3-yl)amino)-7,8-dihydro-5H-pyrano[3,4-d]pyridazin-1-yl)phenol]: the efflux ratio at 60 min, 1 µM at MDR1 (P-gp) was 9. In addition, the Papp A→B at 60 min, 1 µM on MDR1 (P-gp) worked out at 2.1 ×10⁻⁶ cm/s. Besides, the IC50 with NF-κB pathway was more than 30 µM; at NLRP3 inflammasome, 2 nM.

Consider `Cc1ccc(-c2nnc(N[C@@H]3CCCN(C)C3)c3c2CCOC3)c(O)c1` [Example 218, (R)-5-methyl-2-(4-((1-methylpiperidin-3-yl)amino)-7,8-dihydro-5H-pyrano[3,4-d]pyridazin-1-yl)phenol], for which, at MDR1 (P-gp), the efflux ratio at 60 min, 1 µM was determined as 26 and the Papp A→B at 60 min, 1 µM stood at 1.2 ×10⁻⁶ cm/s. Besides, the IC50 in the series with NF-κB pathway was more than 30 µM. For the same molecule, the half-maximal inhibitory concentration (IC50) against NLRP3 inflammasome stood at 2 nM.

Turning to `Cc1ccc(-c2nnc(N[C@@H]3C[C@@H](F)CN(C)C3)c3c2COCC3)c(O)c1` [Example 201, 2-(1-(((3R,5R)-5-fluoro-1-methylpiperidin-3-yl)amino)-7,8-dihydro-5H-pyrano[3,4-d]pyridazin-4-yl)-5-methylphenol], at MDR1 (P-gp), the efflux ratio at 60 min, 1 µM is 17. At MDR1 (P-gp), the apparent permeability from apical to basolateral (Papp A→B) at 60 min, 1 µM turned out to be 1.7 ×10⁻⁶ cm/s. Also, the figures for the 50% inhibitory concentration (IC50) in the series with NF-κB pathway and at NLRP3 inflammasome were more than 30 µM and 10 nM, respectively.
